Measurements reported in paper PMC10102027, “Helquat dyes targeting G-quadruplexes as a new class of anti-HIV-1 inhibitors” (Scientific Reports, 2023).
Entries after “also recorded” stand apart in the source; their conditions may differ.

Experiments:
c-myc G-quadruplex = test: Light-up experiment, c-myc; type: binding; conditions: 4 μM compound, excitation 280 nm
Method: (§1) The intensity of fluorescence measured after the incubation with both oligonucleotides incompetent of G-quadruplex formation was almost identical, with the maximum intensity 2.5 times lower than that of the G-quadruplex-forming oligonucleotide (wt). […] To examine the specificity of ligand 12, we have repeated the light-up experiment with single-stranded G4 LTR in parallel with double-stranded G4 LTR and additional G-quadruplexes (c-myc, c-kit1 and h-telo). […] To further evaluate the specificity of ligand 12, we performed the light-up titration experiment incubating compound 12 with serial dilutions (1:1) of oligonucleotides (ss G4 LTR wild type, G4 c-myc and c-kit1) spanning final concentrations 2 to 0.002 μM (Supplement Fig. S3B). […] This can indicate a slight preference of ligand 12 for ss G4 LTR than for c-myc at lower oligonucleotide concentrations.
(§2) The selected compounds were incubated in the presence of the G4 LTR wild-type (wt) oligonucleotide, the G4 LTR M4 + M5 oligonucleotide containing mutations that disabled G-quadruplex formation (described previously[41]), and the G4 LTR scrambled-sequence oligonucleotide, or the buffer-only control. The compounds were tested at a compound:oligonucleotide ratio of 2:1 (4 μM compounds and 2 μM oligonucleotide) in PBS in a 384-well plate. Emission spectra were measured after excitation at 280 nm in a Tecan Infinite M1000 plate reader. […]

c-kit1 G-quadruplex = test: Light-up experiment, c-kit1; type: binding; conditions: 4 μM compound, excitation 280 nm
Method: as §1, §2

h-telo G-quadruplex = test: Light-up experiment, h-telo; type: binding; conditions: 4 μM compound, excitation 280 nm
Method: as §1, §2

in vitro = type: cell-based; conditions: human
Text: Based on a facile [2 + 2 + 2]‐cycloisomerization strategy, a robust three‐step synthetic entry into a novel family of helical extended diquats (helquats) was developed. After a straightforward Knoevenagel condensation of the respective helquat parent with different aldehydes (Fig. 2A), more than 500 helquat-based compounds were synthesized and screened for anti-HIV-1 activity in an assay based on the inhibition of the virus-induced cytopathic effect in MT-4 cells, evaluated after 5 days post-infection by an XTT assay. In parallel with the screening, the XTT assay was also used to determine the cytotoxicity of all compounds (Fig. 2B; for more information on the synthesis and characterization of the compounds, see the Supplementary Information). […]
XTT screening. MT-4 cells were seeded in 80 µl of the RPMI without Phenol Red in the amount of 3x10^4 cells per well of a 96-well plate. 10 µl of tested compounds (500 µM at 5% DMSO) or controls (5% DMSO at PBS, AZT 1mM, SQV 100 µM) were added to the cells; after one-hour incubation at 37 °C, HIV-1 (NL4-3 strain) was added with MOI = 0.05 and the infected cells were cultivated for five days.
The viability of the cells was measured by the XTT cell viability and proliferation assay. Briefly, 50 µl of the XTT solution with the addition of PMS (both VWR) was added to the cultivation media and incubated in a humidified incubator maintained at 37 °C with 5% CO2 for four hours, after which absorbance at 560 nm was measured on a VICTOR plate reader (PerkinElmer).
The cytotoxicity of the tested compounds was evaluated separately without virus addition and analysed by the same assay.
For compounds selected as hits in the initial screening, the effective concentration that inhibits 50% of the viral activity (EC50) and the cytotoxic concentration that reduces the MT -4 cell viability by 50% (CC50) were determined. Viral activity was evaluated after five days as an HIV-1-induced cytopathic effect quantified by the XTT assay. Selected hits were tested at two-fold serial dilutions from 50 µM concentration, and the drug concentrations required to reduce the viral cytopathic effect by 50% (EC 50) as well as the drug concentrations that reduced MT-4 cell viability by 50% (CC50) were calculated by nonlinear regression using GraphPad Prism v.8.0.0 (GraphPad Software).

ds G4 LTR = test: Light-up experiment, ds G4 LTR; type: binding, HIV-1; conditions: 4 μM compound, excitation 280 nm
Method: as §1, §2

[1] = test system: G-quadruplexes in the HIV-1 LTR (G4 LTR FRET oligonucleotide); test: FRET melting assay; type: binding; conditions: 2 μM compound, 0.2 μM oligonucleotide; for Tm: 100 mM KCl, mean and standard error, three experiments; for ΔTm: average Tm minus average Tm of PBS
[2] = test system: HIV-1 LTR G-quadruplex template (G4 LTR Stop); test: Taq polymerase stop assay; type: biochemical; conditions: for Fold change, all regions (A, B and C) together: normalized against control; for Fold change: A (G-patch 6′) / Fold change: B (G-patch 6) / Fold change: C (G-patch 5): 2.5 µM, pixel intensity normalized against negative control; for G-quadruplex stabilization / stop band pattern: Taq polymerase pausing at G-patches, 1-5 μM
Method: To address specifically the positions in the HIV-1 promoter region that are affected by the binding of G4-stabilizing agents, we performed a Taq polymerase stop assay. The wild-type LTR oligonucleotide was extended at the […] to include a primer-annealing region and used as a template for a single-cycle Taq polymerase reaction. The elongation of the radioactively labelled primer was performed at 45 °C in the presence or absence of the tested compounds and controls.
A Taq polymerase stop assay was carried out as described in a previous study. Briefly, the primer (G4 LTR primer, Supplementary Table S1) was 5′-end labelled with [γ-^32P]ATP using T4 polynucleotide kinase at 37 °C for 30 min. The T4 polynucleotide kinase was then inactivated by incubation at 65 °C for 5 min. The radioactively labelled primer was column-purified and stored at − 20 °C for further use. The labelled primer (1.7 pmol) was annealed to the template (2.1 pmol) in the LiCaco buffer and extended with the Go Taq DNA polymerase (2U/reaction, Promega) at 45 °C for 45 min. Samples were incubated with G-quadruplex-ligands at 45 °C for 45 min before DNA polymerase addition. The reactions were stopped by a denaturing solution (80% formamide, 10% glycerol, 0.025% xylen cyanol, 0.025% bromphenol blue and 10 mM EDTA pH 8); extension products were separated on 15% denaturing gel and visualized by phosphorimaging. The pixel intensity of bands was calculated using 1D gel analysis in ImageQuant TL software version 8.1 (GE HealthCare) after automatic background subtraction by Rolling Ball method.

Row | SMILES | fluorescence light-up (c-myc G-quadruplex) | fluorescence light-up (c-kit1 G-quadruplex) | fluorescence light-up (h-telo G-quadruplex) | CC50 at 5 days (in vitro) | fluorescence light-up (ds G4 LTR) | Tm [1] | ΔTm [1] | Fold change, all regions (A, B and C) together ([2]; 1 μM) | Fold change, all regions (A, B and C) together ([2]; 2.5 μM) | Fold change: A (G-patch 6′) [2] | Fold change: B (G-patch 6) [2] | Fold change: C (G-patch 5) [2] | Fold change, all regions (A, B and C) together ([2]; 5 μM) | G-quadruplex stabilization / stop band pattern [2]
1 | Cn1cc(/C=C/c2cc(/C=C/c3cn(C)c4ccccc34)[n+]3c(c2)-c2c(ccc4c2-c2cccc[n+]2CCC4)CCC3)c2ccccc21 [Compound 12] | strong fluorescence | strong fluorescence | low fluorescence | > 50 µM | very weak fluorescence | 79 ± 0.2 °C | 28 °C | 1.4 | 1.9 | 1.9 | 2.1 | 1.5 | 1.8 | exhibit their stabilization effect even at 1 μM concentration; also recorded: stop bands only in G-patch 6
2 | C(=C\c1cc(/C=C/c2ccc3c(c2)CCO3)[n+]2c(c1)-c1c(ccc3c1-c1cccc[n+]1CCC3)CCC2)/c1ccc2c(c1)CCO2 [Compound 14] | – | – | – | > 50 µM | – | 64 ± 0.2 °C | 13 °C | 1.2 | 1.7 | 1.4 | 2.0 | 1.5 | 1.8 | stop bands only in G-patch 6
3 | COc1ccc2ccccc2c1/C=C/c1cc[n+]2c(c1)-c1c(c(C)c(C)c3c1-c1cc(/C=C/c4c(OC)ccc5ccccc45)cc[n+]1CC3)CC2 [Compound 15] | – | – | – | > 50 µM | – | 70 ± 1.0 °C | 19 °C | 1.6 | 2.4 | 2.8 | 2.5 | 1.8 | 2.5 | strong stop bands also in G-patch 6′; also recorded: exhibit their stabilization effect even at 1 μM concentration
